The record followed here is paper PMC7827406, “Structure–Activity Relationship (SAR) Study of Spautin-1 to Entail the Discovery of Novel NEK4 Inhibitors” (International Journal of Molecular Sciences, 2021).

Read-outs that look alike come from different tables or passages of the source.

Common to all, as to experiment: biochemical
What all share (set-up): Eurofins KinaseProfiler full panel at Km ATP, residual kinase activity (%) relative to DMSO

The target in one assay is CaMKK1(h) (Homo sapiens, UniProt Q8N5S9). The gist of the method:
(§1)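 Radiometric kinase activity assays were run with ATP at Km and compounds at 10 µM, and remaining activity (%) was reported. A separate competitive binding screen measured DNA-tagged kinase displaced from immobilized active-site ligands by qPCR, giving percent kinase still bound at 10 µM compound in DMSO.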

In the next assay the target is T1, DCAMKL3(h) (Homo sapiens, UniProt Q9C098).
T1 construct: gene DCLK3
T1 sequence (Q9C098 1-648): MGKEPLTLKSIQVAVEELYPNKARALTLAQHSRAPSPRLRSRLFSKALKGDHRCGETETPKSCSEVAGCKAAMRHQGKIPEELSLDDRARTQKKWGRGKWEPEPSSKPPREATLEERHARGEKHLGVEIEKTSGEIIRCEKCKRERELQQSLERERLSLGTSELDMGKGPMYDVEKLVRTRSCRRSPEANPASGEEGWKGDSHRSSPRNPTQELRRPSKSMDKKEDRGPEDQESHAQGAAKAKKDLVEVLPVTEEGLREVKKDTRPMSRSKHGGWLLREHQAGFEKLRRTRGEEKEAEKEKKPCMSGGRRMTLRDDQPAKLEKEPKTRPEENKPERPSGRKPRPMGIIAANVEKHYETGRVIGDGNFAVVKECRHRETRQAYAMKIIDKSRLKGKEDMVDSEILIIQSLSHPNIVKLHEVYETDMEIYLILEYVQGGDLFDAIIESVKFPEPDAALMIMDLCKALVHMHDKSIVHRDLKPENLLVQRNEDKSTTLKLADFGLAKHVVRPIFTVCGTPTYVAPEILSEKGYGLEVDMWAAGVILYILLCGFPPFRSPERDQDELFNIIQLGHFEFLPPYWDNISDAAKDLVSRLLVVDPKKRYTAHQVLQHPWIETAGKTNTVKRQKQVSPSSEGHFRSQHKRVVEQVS
In short, it runs like this: as §1

A further assay addresses JAK1(h) (Homo sapiens, UniProt P23458). In short, it runs like this:
as §1

The next assay concerns the target T2, MKK3(h) (Homo sapiens, UniProt P46734).
T2 construct: gene MAP2K3
T2 sequence (P46734 1-347): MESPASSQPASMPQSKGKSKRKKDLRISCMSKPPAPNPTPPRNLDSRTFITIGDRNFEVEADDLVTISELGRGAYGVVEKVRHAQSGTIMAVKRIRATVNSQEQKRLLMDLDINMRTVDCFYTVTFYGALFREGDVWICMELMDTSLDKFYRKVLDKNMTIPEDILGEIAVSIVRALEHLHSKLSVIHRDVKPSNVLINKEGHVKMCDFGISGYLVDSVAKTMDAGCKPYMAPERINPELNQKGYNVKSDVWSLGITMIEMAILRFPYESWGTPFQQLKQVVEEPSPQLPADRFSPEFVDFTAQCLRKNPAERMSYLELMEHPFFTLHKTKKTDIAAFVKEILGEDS
In short, it runs like this: as §1

Another assay addresses T3, Plk4(h) (Homo sapiens, UniProt O00444).
T3 sequence (O00444 1-970): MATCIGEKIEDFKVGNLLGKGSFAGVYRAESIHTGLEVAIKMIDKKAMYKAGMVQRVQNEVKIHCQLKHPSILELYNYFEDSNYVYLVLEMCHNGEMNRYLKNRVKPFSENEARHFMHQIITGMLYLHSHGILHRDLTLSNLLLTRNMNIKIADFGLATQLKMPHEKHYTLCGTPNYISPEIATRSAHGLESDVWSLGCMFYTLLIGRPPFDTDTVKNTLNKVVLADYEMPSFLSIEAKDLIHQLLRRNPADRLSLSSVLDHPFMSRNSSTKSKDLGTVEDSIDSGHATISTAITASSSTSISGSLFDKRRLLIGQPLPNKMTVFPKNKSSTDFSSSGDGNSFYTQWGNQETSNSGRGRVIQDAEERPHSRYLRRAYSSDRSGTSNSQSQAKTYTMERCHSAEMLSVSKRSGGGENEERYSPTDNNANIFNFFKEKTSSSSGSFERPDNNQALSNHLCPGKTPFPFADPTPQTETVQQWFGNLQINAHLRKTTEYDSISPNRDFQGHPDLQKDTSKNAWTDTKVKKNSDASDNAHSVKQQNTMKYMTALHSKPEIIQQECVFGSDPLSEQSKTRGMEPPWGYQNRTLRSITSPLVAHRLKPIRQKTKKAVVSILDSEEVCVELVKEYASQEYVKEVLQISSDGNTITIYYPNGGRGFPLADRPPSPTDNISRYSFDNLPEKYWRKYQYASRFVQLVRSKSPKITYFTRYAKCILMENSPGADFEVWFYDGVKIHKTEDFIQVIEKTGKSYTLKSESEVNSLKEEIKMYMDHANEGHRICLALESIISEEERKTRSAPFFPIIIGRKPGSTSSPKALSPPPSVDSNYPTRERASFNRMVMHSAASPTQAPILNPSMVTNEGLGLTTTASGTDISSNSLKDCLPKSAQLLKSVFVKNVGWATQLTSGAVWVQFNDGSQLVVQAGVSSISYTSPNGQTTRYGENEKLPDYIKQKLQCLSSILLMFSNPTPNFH
The gist of the method: as §1

A further assay deals with T4, ROCK-II(h) (Homo sapiens, UniProt O75116).
T4 construct: gene ROCK2
The gist of the method: as §1

A further assay deals with T5, Wee1B(h) (Homo sapiens, UniProt P0C1S8).
T5 construct: gene WEE2
The gist of the method: as §1

The mark [1] stands for this setting: read-out: Residual activity (%) Spautin-1 5aa.
Where [2] appears, read: read-out: Residual activity (%) 5as.
The mark [3] stands for this setting: read-out: Residual activity (%) 5at.
Where [4] appears, read: read-out: Residual activity (%) 5ay.

Chain of CaMKK1(h) (Q8N5S9 whole entry): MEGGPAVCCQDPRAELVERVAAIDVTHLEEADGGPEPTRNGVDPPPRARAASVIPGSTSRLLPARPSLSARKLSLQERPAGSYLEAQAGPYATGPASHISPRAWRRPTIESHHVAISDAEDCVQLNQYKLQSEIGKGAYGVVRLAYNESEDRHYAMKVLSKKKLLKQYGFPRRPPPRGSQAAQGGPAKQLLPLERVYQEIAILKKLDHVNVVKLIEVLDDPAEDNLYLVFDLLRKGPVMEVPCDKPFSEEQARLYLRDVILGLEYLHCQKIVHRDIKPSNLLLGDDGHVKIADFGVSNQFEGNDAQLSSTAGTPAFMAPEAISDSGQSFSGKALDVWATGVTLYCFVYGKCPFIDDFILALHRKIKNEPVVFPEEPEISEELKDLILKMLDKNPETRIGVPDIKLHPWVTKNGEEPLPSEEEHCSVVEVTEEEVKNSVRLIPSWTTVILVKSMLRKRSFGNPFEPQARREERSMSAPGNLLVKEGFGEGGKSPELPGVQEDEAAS
Chain of JAK1(h) (P23458 whole entry): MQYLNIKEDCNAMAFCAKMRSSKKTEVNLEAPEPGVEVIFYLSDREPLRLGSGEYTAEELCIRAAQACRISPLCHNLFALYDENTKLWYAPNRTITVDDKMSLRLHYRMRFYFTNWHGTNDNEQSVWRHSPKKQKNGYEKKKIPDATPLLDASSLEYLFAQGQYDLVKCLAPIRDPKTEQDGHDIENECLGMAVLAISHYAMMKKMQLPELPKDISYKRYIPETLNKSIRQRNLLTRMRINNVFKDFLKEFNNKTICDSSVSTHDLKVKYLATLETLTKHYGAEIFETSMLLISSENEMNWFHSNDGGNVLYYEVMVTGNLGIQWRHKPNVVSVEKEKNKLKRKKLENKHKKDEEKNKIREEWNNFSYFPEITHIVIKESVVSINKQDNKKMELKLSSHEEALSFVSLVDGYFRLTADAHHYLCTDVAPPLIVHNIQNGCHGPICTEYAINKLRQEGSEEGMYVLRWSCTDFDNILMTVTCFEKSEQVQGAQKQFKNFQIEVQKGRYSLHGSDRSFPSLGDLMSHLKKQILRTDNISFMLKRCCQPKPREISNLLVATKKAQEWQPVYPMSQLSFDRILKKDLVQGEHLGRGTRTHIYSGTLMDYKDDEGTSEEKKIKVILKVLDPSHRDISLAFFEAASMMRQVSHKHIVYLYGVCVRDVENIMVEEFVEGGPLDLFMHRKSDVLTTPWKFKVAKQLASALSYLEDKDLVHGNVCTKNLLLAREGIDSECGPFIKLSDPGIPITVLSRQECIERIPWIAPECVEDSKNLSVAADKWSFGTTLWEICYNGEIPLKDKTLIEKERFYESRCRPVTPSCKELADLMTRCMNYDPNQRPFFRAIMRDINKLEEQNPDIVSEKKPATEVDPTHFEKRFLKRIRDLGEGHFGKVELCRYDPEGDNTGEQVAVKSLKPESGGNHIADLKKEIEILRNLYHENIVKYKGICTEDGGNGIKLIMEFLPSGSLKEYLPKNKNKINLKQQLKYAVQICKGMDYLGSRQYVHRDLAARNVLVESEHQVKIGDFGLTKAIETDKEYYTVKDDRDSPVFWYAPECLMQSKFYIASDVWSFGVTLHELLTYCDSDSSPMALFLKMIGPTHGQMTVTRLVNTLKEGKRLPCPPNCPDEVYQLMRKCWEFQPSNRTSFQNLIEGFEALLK
T5 sequence (P0C1S8 whole entry): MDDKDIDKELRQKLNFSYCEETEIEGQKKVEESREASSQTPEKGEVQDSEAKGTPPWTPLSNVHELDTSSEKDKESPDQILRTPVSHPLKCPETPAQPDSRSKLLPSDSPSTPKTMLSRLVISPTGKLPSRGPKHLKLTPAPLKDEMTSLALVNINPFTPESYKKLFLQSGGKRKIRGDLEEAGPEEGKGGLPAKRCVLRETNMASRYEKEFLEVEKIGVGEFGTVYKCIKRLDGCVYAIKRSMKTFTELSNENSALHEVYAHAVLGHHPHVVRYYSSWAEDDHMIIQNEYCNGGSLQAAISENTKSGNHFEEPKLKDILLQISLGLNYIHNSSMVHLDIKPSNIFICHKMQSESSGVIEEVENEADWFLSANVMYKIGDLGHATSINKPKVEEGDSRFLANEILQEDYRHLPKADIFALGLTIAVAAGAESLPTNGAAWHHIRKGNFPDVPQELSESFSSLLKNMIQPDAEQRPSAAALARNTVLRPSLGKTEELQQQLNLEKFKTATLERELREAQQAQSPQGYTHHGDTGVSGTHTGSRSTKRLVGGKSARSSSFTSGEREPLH
T4 sequence (O75116 whole entry): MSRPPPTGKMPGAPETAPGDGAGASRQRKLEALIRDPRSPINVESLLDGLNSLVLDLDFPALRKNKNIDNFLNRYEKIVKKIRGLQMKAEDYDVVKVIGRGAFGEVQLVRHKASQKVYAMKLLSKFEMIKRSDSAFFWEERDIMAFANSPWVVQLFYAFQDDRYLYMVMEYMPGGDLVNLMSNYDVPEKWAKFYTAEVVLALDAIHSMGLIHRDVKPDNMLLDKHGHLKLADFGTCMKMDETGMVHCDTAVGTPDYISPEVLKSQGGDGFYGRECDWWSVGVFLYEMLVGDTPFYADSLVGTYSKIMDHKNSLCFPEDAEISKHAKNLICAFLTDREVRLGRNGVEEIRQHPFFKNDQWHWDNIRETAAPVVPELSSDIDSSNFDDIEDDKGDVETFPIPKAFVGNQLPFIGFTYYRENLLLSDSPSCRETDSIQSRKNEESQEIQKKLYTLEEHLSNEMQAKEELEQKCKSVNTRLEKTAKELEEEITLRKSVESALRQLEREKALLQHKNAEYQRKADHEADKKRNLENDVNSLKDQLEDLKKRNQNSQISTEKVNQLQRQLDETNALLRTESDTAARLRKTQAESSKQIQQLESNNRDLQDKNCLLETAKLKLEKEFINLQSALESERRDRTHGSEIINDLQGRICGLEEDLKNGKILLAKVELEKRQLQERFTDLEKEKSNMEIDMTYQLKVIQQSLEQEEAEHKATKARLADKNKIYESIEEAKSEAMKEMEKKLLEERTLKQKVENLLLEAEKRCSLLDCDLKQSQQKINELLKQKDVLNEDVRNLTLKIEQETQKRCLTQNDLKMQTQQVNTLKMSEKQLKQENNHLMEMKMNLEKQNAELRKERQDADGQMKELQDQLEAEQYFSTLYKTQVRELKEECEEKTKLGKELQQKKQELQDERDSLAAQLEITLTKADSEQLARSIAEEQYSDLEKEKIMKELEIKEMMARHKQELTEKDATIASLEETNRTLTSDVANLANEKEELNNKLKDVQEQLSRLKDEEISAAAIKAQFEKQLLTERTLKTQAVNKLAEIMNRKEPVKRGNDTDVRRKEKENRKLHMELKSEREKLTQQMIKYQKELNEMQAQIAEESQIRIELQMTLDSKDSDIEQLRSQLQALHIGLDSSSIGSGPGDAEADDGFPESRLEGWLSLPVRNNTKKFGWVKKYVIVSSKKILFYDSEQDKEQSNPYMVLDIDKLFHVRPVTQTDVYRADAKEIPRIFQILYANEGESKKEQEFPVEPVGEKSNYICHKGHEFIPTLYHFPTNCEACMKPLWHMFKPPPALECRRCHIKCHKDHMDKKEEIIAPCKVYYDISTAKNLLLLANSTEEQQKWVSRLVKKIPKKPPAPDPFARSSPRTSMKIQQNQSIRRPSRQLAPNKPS

On to `Fc1ccc(CNc2ncnc3ccc(F)cc23)cc1` [5aa, 6-Fluoro-N-(4-fluorobenzyl)-4-Quinazolinamine], for which the remaining activity at 10 µM amounted to 96% at CaMKK1(h) (setting [1]); 102% on DCAMKL3(h) (setting [1]); 117% on JAK1(h) (setting [1]); 101% on MKK3(h) (setting [1]); 91% at Plk4(h) (setting [1]); 88% on ROCK-II(h) (setting [1]). On Wee1B(h) (setting [1]), the remaining activity at 10 µM is 95%.
Regarding `Fc1ccc(CCNc2ncnc3ccc(F)cc23)cc1` [5as, 6-Fluoro-N-[2-(4-Fluorophenyl)Ethyl]-4-Quinazolinamine], the remaining activity at 10 µM on CaMKK1(h) (setting [2]) was 99%; at DCAMKL3(h) (setting [2]), 108%; on JAK1(h) (setting [2]) it was 93%; on MKK3(h) (setting [2]), 82%; at Plk4(h) (setting [2]), 80%; on ROCK-II(h) (setting [2]), 81%. Further, on Wee1B(h) (setting [2]), the remaining activity at 10 µM was determined as 99%.
For the compound `Fc1ccc2ncnc(NCCc3ccc(Cl)cc3)c2c1` [5at, N-[2-(4-Chlorophenyl)Ethyl]-6-Fluoro-4-Quinazolinamine], the remaining activity at 10 µM amounted to 91% on CaMKK1(h) (setting [3]); 107% on DCAMKL3(h) (setting [3]); 99% on JAK1(h) (setting [3]); 86% on MKK3(h) (setting [3]); 78% on Plk4(h) (setting [3]); 79% at ROCK-II(h) (setting [3]). Also, the remaining activity at 10 µM at Wee1B(h) (setting [3]) came out at 100%.
Turning to `COc1ccc2ncnc(Nc3cccc(F)c3)c2c1` [5ay, N-(3-Fluorophenyl)-6-Methoxy-4-Quinazolinamine], the remaining activity at 10 µM was 90% on CaMKK1(h) (setting [4]); 108% on DCAMKL3(h) (setting [4]); 90% on JAK1(h) (setting [4]); 105% on MKK3(h) (setting [4]); 87% at Plk4(h) (setting [4]); 84% on ROCK-II(h) (setting [4]). Further, the remaining activity at 10 µM on Wee1B(h) (setting [4]) amounted to 106%.
